Assay results as given in ChEMBL document CHEMBL4118098, “Discovery of DS28120313 as a potent orally active hepcidin production inhibitor: Design and optimization of novel 4,6-disubstituted indazole derivatives” (Bioorg Med Chem Lett, 2017).
One block for each molecule: values may come before it.

Key:
[1] = target: Serine/threonine-protein kinase MARK2 (Homo sapiens) (UniProt Q7KZI7); assay: Inhibition of MARK2 (unknown origin) at 0.19 uM relative to control
[2] = target: Serine/threonine-protein kinase D3 (Homo sapiens) (UniProt O94806); assay: Inhibition of PKD3 (unknown origin) at 0.19 uM relative to control
[3] = target: Maternal embryonic leucine zipper kinase (Homo sapiens) (UniProt Q14680); assay: Inhibition of MELK (unknown origin) at 0.19 uM relative to control
[4] = target: Rho-associated protein kinase 2 (Homo sapiens) (UniProt O75116); assay: Inhibition of ROCK2 (unknown origin) at 0.19 uM relative to control
[5] = target: Serine/threonine-protein kinase pim-2 (Homo sapiens) (UniProt Q9P1W9); assay: Inhibition of PIM2 (unknown origin) at 0.19 uM relative to control
[6] = target: Dual specificity tyrosine-phosphorylation-regulated kinase 1A (Homo sapiens) (UniProt Q13627); assay: Inhibition of DYRK1a (unknown origin) at 0.19 uM relative to control
[7] = target: Receptor-type tyrosine-protein kinase FLT3 (Homo sapiens) (UniProt P36888); assay: Inhibition of FLT3 (unknown origin) at 0.19 uM relative to control
[8] = target: T1, Protein kinase C iota type (Homo sapiens) (UniProt P41743); assay: Inhibition of PKC-iota (unknown origin) at 0.19 uM relative to control
T1 sequence (whole entry): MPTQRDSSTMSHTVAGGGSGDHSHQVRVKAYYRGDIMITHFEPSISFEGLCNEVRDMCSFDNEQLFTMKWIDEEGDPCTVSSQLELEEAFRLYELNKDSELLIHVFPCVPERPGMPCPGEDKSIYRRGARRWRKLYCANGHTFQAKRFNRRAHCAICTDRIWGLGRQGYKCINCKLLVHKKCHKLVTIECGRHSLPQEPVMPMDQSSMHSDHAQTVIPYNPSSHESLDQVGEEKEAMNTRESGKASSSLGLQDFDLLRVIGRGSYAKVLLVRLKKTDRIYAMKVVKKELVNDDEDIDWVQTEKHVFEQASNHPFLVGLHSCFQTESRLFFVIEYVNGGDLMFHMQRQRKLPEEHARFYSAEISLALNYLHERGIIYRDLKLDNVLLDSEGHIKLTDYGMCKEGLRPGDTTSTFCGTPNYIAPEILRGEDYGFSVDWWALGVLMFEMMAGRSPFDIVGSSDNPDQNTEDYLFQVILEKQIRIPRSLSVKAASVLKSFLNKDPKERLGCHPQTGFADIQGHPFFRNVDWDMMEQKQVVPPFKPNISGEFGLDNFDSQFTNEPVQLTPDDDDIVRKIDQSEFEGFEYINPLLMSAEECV

[9] = target: Serine/threonine-protein kinase PAK 3 (Homo sapiens) (UniProt O75914); assay: Inhibition of PAK3 (unknown origin) at 0.19 uM relative to control
[10] = target: Cyclin-dependent kinase 3 (Homo sapiens) (UniProt Q00526); assay: Inhibition of CDK3 (unknown origin) at 0.19 uM relative to control
[11] = target: Tyrosine-protein kinase Yes (Homo sapiens) (UniProt P07947); assay: Inhibition of Yes (unknown origin) at 0.19 uM relative to control
[12] = target: Aurora kinase A (Homo sapiens) (UniProt O14965); assay: Inhibition of AurA (unknown origin) at 0.164 uM relative to control
[13] = target: Serine/threonine-protein kinase D2 (Homo sapiens) (UniProt Q9BZL6); assay: Inhibition of PKD2 (unknown origin) at 0.164 uM relative to control
[14] = target: Tyrosine-protein kinase Fyn (Homo sapiens) (UniProt P06241); assay: Inhibition of FYN (unknown origin) at 0.164 uM relative to control
[15] = target: AMPK alpha2/beta1/gamma1 (Homo sapiens) (UniProt P54646+P54619+Q9Y478); assay: Inhibition of AMPK-alpha2/beta1/gamma1 (unknown origin) at 0.164 uM relative to control; assay type: protein-complex assay
[16] = target: Mitogen-activated protein kinase kinase kinase kinase 4 (Homo sapiens) (UniProt O95819); assay: Inhibition of HGK (unknown origin) at 0.164 uM relative to control
[17] = target: Tyrosine-protein kinase SYK (Homo sapiens) (UniProt P43405); assay: Inhibition of SYK (unknown origin) at 0.164 uM relative to control
[18] = target: Aurora kinase B (Homo sapiens) (UniProt Q96GD4); assay: Inhibition of AurB (unknown origin) at 0.164 uM relative to control
[19] = target: Receptor tyrosine-protein kinase erbB-4 (Homo sapiens) (UniProt Q15303); assay: Inhibition of HER4 (unknown origin) at 0.164 uM relative to control
[20] = test system: Tyrosine-protein kinase ABL1 (Homo sapiens), P00519 [T315I]; assay: Inhibition of Abl T315I mutant (unknown origin) at 0.164 uM relative to control
[21] = target: Cyclin-dependent kinase 5/CDK5 activator 1 (Homo sapiens) (UniProt Q00535+Q15078); assay: Inhibition of CDK5/p25 (unknown origin) at 0.164 uM relative to control; assay type: protein-complex assay
[22] = target: Aurora kinase C (Homo sapiens) (UniProt Q9UQB9); assay: Inhibition of AurC (unknown origin) at 0.45 uM relative to control
[23] = target: Macrophage-stimulating protein receptor (Homo sapiens) (UniProt Q04912); assay: Inhibition of MST1R (unknown origin) at 0.45 uM relative to control
Chain of Macrophage-stimulating protein receptor (Homo sapiens) (Q04912 25-304 limits assumed): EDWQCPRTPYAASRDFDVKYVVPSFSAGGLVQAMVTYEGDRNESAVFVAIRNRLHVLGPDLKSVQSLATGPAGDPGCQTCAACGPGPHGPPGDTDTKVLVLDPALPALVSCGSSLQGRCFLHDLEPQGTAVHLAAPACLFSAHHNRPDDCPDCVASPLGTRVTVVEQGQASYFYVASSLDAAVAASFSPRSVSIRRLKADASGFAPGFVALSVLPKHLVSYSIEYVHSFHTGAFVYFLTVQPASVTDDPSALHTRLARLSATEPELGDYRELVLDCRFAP
Chain of Macrophage-stimulating protein receptor (Homo sapiens) (Q04912 310-1400 limits assumed): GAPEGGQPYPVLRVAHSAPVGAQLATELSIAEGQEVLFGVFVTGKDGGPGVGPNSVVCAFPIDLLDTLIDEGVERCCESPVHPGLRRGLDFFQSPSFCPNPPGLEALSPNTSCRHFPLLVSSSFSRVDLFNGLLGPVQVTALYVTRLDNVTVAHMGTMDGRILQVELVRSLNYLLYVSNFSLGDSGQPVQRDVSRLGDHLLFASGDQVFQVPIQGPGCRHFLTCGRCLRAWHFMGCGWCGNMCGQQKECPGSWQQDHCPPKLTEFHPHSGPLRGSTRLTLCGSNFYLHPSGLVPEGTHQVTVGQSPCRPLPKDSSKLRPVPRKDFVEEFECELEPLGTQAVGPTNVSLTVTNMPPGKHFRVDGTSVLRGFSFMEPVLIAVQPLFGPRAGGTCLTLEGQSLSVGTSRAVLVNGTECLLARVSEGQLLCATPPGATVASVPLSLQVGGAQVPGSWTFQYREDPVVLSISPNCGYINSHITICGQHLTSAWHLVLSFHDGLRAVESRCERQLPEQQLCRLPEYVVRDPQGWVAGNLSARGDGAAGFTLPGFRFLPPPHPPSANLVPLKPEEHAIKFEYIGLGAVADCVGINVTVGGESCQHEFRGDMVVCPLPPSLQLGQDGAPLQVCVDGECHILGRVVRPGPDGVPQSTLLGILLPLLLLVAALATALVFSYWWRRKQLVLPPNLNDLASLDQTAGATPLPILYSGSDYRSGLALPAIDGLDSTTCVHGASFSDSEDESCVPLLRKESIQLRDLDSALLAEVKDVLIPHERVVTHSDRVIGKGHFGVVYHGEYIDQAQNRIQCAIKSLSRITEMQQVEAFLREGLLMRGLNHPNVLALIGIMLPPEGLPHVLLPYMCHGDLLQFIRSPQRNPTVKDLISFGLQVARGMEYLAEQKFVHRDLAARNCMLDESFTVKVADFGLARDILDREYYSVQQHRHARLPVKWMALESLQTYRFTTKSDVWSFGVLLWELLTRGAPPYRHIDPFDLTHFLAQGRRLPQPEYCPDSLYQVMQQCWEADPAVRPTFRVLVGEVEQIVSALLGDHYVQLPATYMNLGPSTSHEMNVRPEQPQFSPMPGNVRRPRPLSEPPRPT

Chain of Serine/threonine-protein kinase MARK2 (Homo sapiens) (Q7KZI7 whole entry): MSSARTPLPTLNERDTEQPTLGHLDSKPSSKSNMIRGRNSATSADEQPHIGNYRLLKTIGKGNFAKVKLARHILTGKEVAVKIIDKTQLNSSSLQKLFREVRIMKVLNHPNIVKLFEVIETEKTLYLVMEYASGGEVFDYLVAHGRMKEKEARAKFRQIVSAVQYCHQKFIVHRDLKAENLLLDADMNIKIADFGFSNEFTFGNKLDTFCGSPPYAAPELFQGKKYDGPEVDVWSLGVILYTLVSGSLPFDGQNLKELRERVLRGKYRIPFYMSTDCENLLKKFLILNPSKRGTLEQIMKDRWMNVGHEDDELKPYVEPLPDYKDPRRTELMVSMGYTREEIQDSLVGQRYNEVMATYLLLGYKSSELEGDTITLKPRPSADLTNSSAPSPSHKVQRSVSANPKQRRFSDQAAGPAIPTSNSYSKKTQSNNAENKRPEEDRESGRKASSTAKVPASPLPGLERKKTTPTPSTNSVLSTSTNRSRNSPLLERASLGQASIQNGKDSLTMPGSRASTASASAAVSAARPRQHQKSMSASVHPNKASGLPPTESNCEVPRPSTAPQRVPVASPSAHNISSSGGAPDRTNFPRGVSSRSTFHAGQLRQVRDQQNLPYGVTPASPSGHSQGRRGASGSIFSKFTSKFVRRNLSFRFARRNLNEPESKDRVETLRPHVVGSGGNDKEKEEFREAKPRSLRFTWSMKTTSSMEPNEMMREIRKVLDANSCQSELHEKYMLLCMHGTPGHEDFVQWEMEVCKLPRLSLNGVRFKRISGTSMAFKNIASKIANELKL
Chain of Serine/threonine-protein kinase PAK 3 (Homo sapiens) (O75914 whole entry, looked up): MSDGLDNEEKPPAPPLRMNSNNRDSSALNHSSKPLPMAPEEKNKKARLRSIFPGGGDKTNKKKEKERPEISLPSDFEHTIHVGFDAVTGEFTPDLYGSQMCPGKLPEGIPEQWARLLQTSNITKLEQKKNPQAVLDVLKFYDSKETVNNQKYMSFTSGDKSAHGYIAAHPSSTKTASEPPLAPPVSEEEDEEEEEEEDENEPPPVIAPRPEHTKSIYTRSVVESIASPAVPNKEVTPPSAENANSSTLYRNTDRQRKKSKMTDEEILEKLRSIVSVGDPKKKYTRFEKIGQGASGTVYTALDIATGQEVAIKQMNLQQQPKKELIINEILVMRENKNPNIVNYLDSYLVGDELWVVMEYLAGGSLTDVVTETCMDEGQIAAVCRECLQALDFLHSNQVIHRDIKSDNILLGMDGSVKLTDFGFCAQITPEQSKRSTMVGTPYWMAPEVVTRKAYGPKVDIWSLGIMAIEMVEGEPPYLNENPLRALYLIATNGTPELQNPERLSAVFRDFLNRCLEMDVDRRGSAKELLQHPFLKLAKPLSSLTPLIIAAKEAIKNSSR
Chain of Cyclin-dependent kinase 5/CDK5 activator 1 (Homo sapiens) (Q00535 whole entry): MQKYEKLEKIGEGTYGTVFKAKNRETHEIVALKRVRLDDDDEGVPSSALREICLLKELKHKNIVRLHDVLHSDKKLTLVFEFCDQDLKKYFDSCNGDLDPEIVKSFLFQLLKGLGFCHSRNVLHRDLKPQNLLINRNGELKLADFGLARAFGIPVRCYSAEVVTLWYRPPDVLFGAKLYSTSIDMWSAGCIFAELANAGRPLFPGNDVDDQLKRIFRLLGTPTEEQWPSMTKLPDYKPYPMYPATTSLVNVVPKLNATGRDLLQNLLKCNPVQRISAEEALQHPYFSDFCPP
Chain of Cyclin-dependent kinase 5/CDK5 activator 1 (Homo sapiens) (Q15078 99-307 partner limits assumed): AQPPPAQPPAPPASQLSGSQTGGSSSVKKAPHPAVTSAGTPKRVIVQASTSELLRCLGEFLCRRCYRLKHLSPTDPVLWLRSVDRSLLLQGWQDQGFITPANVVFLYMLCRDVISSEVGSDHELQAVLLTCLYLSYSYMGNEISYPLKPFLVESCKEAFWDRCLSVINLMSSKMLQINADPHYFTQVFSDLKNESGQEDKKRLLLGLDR
Chain of Serine/threonine-protein kinase D2 (Homo sapiens) (Q9BZL6 whole entry): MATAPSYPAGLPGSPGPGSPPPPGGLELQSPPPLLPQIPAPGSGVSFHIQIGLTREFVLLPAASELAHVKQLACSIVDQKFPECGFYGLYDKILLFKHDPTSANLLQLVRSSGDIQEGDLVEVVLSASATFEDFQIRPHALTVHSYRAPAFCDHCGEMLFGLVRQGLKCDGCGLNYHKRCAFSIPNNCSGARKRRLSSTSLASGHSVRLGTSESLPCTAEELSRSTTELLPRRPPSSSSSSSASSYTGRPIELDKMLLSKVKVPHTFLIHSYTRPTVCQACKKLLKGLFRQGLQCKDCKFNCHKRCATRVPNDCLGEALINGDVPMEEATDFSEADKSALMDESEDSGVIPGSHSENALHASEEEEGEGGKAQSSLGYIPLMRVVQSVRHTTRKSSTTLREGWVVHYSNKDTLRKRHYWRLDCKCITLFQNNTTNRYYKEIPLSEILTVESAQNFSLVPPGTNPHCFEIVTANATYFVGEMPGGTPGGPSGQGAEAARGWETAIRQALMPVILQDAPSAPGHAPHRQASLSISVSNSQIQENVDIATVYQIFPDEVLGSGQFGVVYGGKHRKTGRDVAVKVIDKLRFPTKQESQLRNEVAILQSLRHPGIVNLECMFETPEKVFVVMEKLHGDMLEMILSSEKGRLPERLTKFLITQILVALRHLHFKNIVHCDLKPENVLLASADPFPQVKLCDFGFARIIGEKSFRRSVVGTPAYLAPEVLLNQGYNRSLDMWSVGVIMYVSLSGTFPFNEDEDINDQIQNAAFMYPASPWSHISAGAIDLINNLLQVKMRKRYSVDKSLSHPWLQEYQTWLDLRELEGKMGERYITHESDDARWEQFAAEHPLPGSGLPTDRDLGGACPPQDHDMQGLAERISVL
Chain of Tyrosine-protein kinase Fyn (Homo sapiens) (P06241 2-537 limits assumed): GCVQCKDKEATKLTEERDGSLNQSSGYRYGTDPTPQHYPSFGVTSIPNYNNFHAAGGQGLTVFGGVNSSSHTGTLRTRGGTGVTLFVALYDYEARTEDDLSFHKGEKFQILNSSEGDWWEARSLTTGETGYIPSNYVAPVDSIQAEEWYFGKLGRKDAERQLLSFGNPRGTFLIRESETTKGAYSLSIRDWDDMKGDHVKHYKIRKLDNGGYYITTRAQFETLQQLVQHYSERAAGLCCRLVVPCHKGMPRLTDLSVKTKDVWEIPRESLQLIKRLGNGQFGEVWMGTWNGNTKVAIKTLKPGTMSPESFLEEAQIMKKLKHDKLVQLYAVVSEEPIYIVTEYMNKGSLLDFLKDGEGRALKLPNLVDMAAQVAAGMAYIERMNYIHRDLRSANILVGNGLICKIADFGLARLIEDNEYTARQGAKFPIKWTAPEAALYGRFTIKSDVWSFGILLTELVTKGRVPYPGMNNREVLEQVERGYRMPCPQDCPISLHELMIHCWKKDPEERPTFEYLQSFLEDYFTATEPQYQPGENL
Chain of Cyclin-dependent kinase 3 (Homo sapiens) (Q00526 whole entry, looked up): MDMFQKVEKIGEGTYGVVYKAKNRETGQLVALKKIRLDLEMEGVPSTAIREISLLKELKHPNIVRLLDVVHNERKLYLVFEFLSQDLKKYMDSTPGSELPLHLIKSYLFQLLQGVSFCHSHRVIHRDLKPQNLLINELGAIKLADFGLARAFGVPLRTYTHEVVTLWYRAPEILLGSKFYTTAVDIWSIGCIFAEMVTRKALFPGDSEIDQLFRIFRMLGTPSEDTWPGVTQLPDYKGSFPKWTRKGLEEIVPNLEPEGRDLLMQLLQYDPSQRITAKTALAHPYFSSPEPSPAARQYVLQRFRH

inhibition [1]: -5.3%
inhibition [2]: 4.7%
inhibition [3]: 51%
inhibition [4]: -1%
inhibition [5]: 2%
inhibition [6]: 3.3%
inhibition [7]: 77.3%
inhibition [8]: -7%
inhibition [9]: -0.7%
inhibition [10]: 1.7%
inhibition [11]: 3.7%
Structure (SMILES): Cc1[nH]nc(C2CC2)c1-c1ccc2c(-c3ccc(N4CCN(C)CC4)nc3)n[nH]c2c1

inhibition [12]: 6.7%
inhibition [13]: 9.3%
inhibition [14]: 10.3%
inhibition [15]: 0.3%
inhibition [16]: 5%
inhibition [17]: 8%
inhibition [18]: 1%
inhibition [19]: -7.7%
inhibition [20]: -3.7%
inhibition [21]: 6.3%
Structure (SMILES): COC(=O)Nc1cc(-c2c(C3CC3)n[nH]c2C)cc2[nH]ncc12

inhibition [22]: -1%
inhibition [23]: -1%
Structure (SMILES): Cc1n[nH]c(C)c1-c1ccc2c(NC(=O)c3ccc(N4CCN(C)CC4)cc3)n[nH]c2c1
